# Laboratory results reported in patent publication US20240293164A1, “METHODS AND COMPOSITIONS OF CRYOABLATION WITH DRUG DELIVERY” (Theromics, Inc., priority 2023, published 2024).
# Assay: differential scanning calorimetry (DSC), heat flow as a function of temperature
# Format: physicochemical
# Experimental: This is also an exothermic event. Upon heating, the cryoablation gel melts at about −10° C.
# An exothermic event begins as the sample is cooled to about −18° C.; and the phase changing event is more than 10° C. wide. This process is more than 4×more exothermic than the crystallization of cryoablation gel, showing that the water crystallization process is much more chaotic with high entropy and takes a while to reach an ordered state. On the contrary, the cryoablation gel is a more highly ordered substance and the crystallization event produces less energy due to the relatively lower entropy.
smiles,measurement,setting,value
O [water],temperature of phase change (exothermic event) on cooling,cooling,about −18 °C
same,width of phase changing event,cooling,more than 10 °C
same,exothermicity of crystallization relative to cryoablation gel,water versus cryoablation gel,more than 4 ×
